Measured values: patent publication US11000491B2, “Amino-aryl-benzamide compounds and methods of use thereof” (HEPANOVA, INC., priority 2017, dated 2021)
Where two headings read alike, the source gives them in different places.

Experiments:
Format in all cases: cell-based
Huh7 cells = experiment: LD content in Huh7 cells pre-treated with insulin, Oil-Red-O staining, absorbance OD 540 nm; conditions: procedure of Example 3, read-out: LD content inhibition (EC50)
Protocol: FIG. 6. […] Spectrophotometric absorbance of untreated or HPN-01-treated Huh7 cells pre-incubated with 1 mM insulin is shown. LD contents were stained using Oil Red O, and measured by determining spectrophotometer absorbance under OD 540 nm.
Huh7 cells were mock treated or pre-treated with 1 mM insulin, and subsequently treated with indicated amounted of HPN-01.
The ability of each HPN-01 derivative obtained from the synthesis methods described above, to inhibit LD formation in hepatocytes, was tested using the procedure outlined in Example 3. The results of this analysis are shown below in Table 6 (second column).

SREBP-2 = SREBP-2 expression in cultured primary human hepatocytes; conditions: procedure of Example 6, read-out: SREBP-2 mRNA inhibition (EC50)
Protocol: (§1) FIG. 9. Effects of HPN-01 on the expression of SREBP-1 (master regulator of hepatic glucose metabolism and fatty acid synthesis) and SREBP-2 (master regulator of cholesterol homeostasis in cells) in cultured primary human hepatocytes.
(§2) Cultured primary human hepatocytes were treated with various concentrations of HPN-01, and the expression levels of SREBP-1 (master regulator of hepatic glucose metabolism and fatty acid synthesis) and SREBP-2 (master regulator of cholesterol homeostasis in cells) were subsequently determined.
(§3) The ability of each HPN-01 derivative obtained from the synthesis methods described above, to inhibit SREBP-1 and SREBP-2 mRNA expression in primary hepatocytes, was tested using the procedure outlined in Example 6. The results of this analysis are shown in Table 6 (third and fourth columns).

SREBP-1 = SREBP-1 expression in cultured primary human hepatocytes; conditions: procedure of Example 6, read-out: SREBP-1 mRNA inhibition (EC50)
Protocol: as §1, §2, §3

[1] = Homo sapiens, Huh-7, Huh7 cells

Row | SMILES | EC50 (Huh7 cells; [1]) [µM] | EC50 (SREBP-2; Homo sapiens, Hepatocyte) [µM] | EC50 (SREBP-1; Homo sapiens, Hepatocyte) [µM] | EC50 (Huh7 cells; Huh7 cells) [µM] | EC50 (SREBP-2) [µM] | EC50 (SREBP-1) [µM] | EC50 (SREBP-2; Hepatocyte) [µM] | EC50 (SREBP-1; Hepatocyte) [µM]
1 | CC(C)OC(=O)c1ccc(-c2cc(C(N)=O)c(N)c(-c3ccc(S(N)(=O)=O)cc3)c2)cc1 [HPN-01303, isopropyl 4′-amino-5′-carbamoyl-4″-sulfamoyl-[1,1′:3′,1″-terphenyl]-4-carboxylate] | 1.3 | 10.5 | 6.62 | – | – | – | – | –
2 | CCCC(=O)Oc1ccc(-c2cc(C(N)=O)c(N)c(-c3ccc(S(N)(=O)=O)cc3)c2)cc1 [HPN-01306, 4′-amino-5′-carbamoyl-4″-sulfamoyl-[1,1′:3′,1″-terphenyl]-4-yl butyrate] | 1.33 | 3.26 | 1.76 | – | – | – | – | –
3 | NC(=O)c1cc(-c2ccc(Cl)nc2)cc(-c2ccc(S(N)(=O)=O)cc2)c1N [HPN-01307, 2-amino-5-(6-chloropyridin-3-yl)-4′-sulfamoyl-[1,1′-biphenyl]-3-carboxamide] | 1.36 | 4.59 | 5.68 | – | – | – | – | –
4 | NC(=O)c1cc(-c2ccc(Cl)cn2)cc(-c2ccc(S(N)(=O)=O)cc2)c1N [HPN-01308, 2-amino-5-(5-chloropyridin-2-yl)-4′-sulfamoyl-[1,1′-biphenyl]-3-carboxamide] | 1.9 | 11.2 | 6.36 | – | – | – | – | –
5 | NC(=O)c1cc(-c2cc(Cl)c[nH]2)cc(-c2ccc(S(N)(=O)=O)cc2)c1N [HPN-01309, 2-amino-5-(4-chloro-1H-pyrrol-2-yl)-4′-sulfamoyl-[1,1′-biphenyl]-3-carboxamide] | 3.5 | 8.96 | 8.16 | – | – | – | – | –
6 | NC(=O)c1cc(-c2c[nH]c(Cl)c2)cc(-c2ccc(S(N)(=O)=O)cc2)c1N [HPN-01310, 2-amino-5-(5-chloro-1H-pyrrol-3-yl)-4′-sulfamoyl-[1,1′-biphenyl]-3-carboxamide] | 10.5 | 23.9 | 13 | – | – | – | – | –
7 | NC(=O)c1cc(-c2c[nH]c(Br)c2)cc(-c2ccc(S(N)(=O)=O)cc2)c1N [HPN-01311, 2-amino-5-(5-bromo-1H-pyrrol-3-yl)-4′-sulfamoyl-[1,1′-biphenyl]-3-carboxamide] | 2.02 | 5.59 | 3.09 | – | – | – | – | –
8 | NC(=O)c1cc(Nc2ccc(Cl)cc2)cc(-c2ccc(S(N)(=O)=O)cc2)c1N [HPN-01312, 2-amino-5-((4-chlorophenyl)amino)-4′-sulfamoyl-[1,1′-biphenyl]-3-carboxamide] | 1.45 | 10.3 | 7.53 | – | – | – | – | –
9 | NC(=O)c1cc(Oc2ccc(Cl)cc2)cc(-c2ccc(S(N)(=O)=O)cc2)c1N [HPN-01313, 2-amino-5-(4-chlorophenoxy)-4′-sulfamoyl-[1,1′-biphenyl]-3-carboxamide] | 1.76 | 9.41 | 5.51 | – | – | – | – | –
10 | NC(=O)c1cc(Sc2ccc(Cl)cc2)cc(-c2ccc(S(N)(=O)=O)cc2)c1N [HPN-01314, 2-amino-5-((4-chlorophenyl)thio)-4′-sulfamoyl-[1,1′-biphenyl]-3-carboxamide] | 1.18 | 7.71 | 4.57 | – | – | – | – | –
11 | NC(=O)c1cc(Nc2cccc(Cl)c2)cc(-c2ccc(S(N)(=O)=O)cc2)c1N [HPN-01315, 2-amino-5-((3-chlorophenyl)amino)-4′-sulfamoyl-[1,1′-biphenyl]-3-carboxamide] | 2.61 | 14 | 7.72 | – | – | – | – | –
12 | NC(=O)c1cc(Oc2cccc(Cl)c2)cc(-c2ccc(S(N)(=O)=O)cc2)c1N [HPN-01316, 2-amino-5-(3-chlorophenoxy)-4′-sulfamoyl-[1,1′-biphenyl]-3-carboxamide] | 5.92 | 11.2 | 8.02 | – | – | – | – | –
13 | NC(=O)c1cc(C2CCC(Br)C2)cc(-c2ccc(S(N)(=O)=O)cc2)c1N (stereo not drawn) [HPN-01321, 2-amino-5-(3-bromocyclopentyl)-4′-sulfamoyl-[1,1′-biphenyl]-3-carboxamide] | 1.76 | 5.31 | 3.06 | – | – | – | – | –
14 | NC(=O)c1cc(C2CCC(Br)CC2)cc(-c2ccc(S(N)(=O)=O)cc2)c1N (stereo not drawn) [HPN-01322, 2-amino-5-(4-bromocyclohexyl)-4′-sulfamoyl-[1,1′-biphenyl]-3-carboxamide] | 0.83 | 2.55 | 1.62 | – | – | – | – | –
15 | NC(=O)c1cc(-c2ccc(Cl)cc2)cc(Sc2ccc(S(N)(=O)=O)cc2)c1N [HPN-01403] | – | – | – | 0.36 | 3.09 | 1.96 | – | –
16 | NC(=O)c1cc(-c2ccc(Cl)cc2)cc(-c2ccc(OP(=O)(O)O)cc2)c1N [HPN-01405, 6′-amino-5′-carbamoyl-4″-chloro-[1,1′:3′,1″-terphenyl]-4-yl dihydrogen phosphate] | 0.76 | – | – | – | – | – | 3.98 | 2.5
17 | CC(=O)Nc1ccc(-c2cc(-c3ccc(Cl)cc3)cc(C(N)=O)c2N)cc1 [HPN-01407, 4″-acetamido-4’-amino-4-chloro-[1,1′:3′,1″-terphenyl]-5′-carboxamide] | 1.07 | 9.69 | 5.41 | – | – | – | – | –
18 | CCC(=O)Nc1ccc(-c2cc(-c3ccc(Cl)cc3)cc(C(N)=O)c2N)cc1 [HPN-01408, 4′-amino-4-chloro-4″-propionamido-[1,1′:3′,1″-terphenyl]-5′-carboxamide] | 1.5 | 4.37 | 2.55 | – | – | – | – | –

The next lines start with results.

Row | EC50 (Huh7 cells; [1]) [µM] | SMILES | EC50 (SREBP-2; Homo sapiens, Hepatocyte) [µM] | EC50 (SREBP-1; Homo sapiens, Hepatocyte) [µM] | EC50 (Huh7 cells; Huh7 cells) [µM] | EC50 (SREBP-2) [µM] | EC50 (SREBP-1) [µM] | EC50 (SREBP-2; Hepatocyte) [µM] | EC50 (SREBP-1; Hepatocyte) [µM]
19 | 0.83 | CC(=O)Oc1ccc(-c2cc(C(N)=O)c(N)c(-c3ccc(S(N)(=O)=O)cc3)c2)cc1 [HPN-01304, 4′-amino-5′-carbamoyl-4″-sulfamoyl-[1,1′:3′,1″-terphenyl]-4-yl acetate] | 2.77 | 1.54 | – | – | – | – | –
20 | 0.82 | CCC(=O)Oc1ccc(-c2cc(C(N)=O)c(N)c(-c3ccc(S(N)(=O)=O)cc3)c2)cc1 [HPN-01305, 4′-amino-5′-carbamoyl-4″-sulfamoyl-[1,1′:3′,1″-terphenyl]-4-yl propionate] | 3.9 | 1.74 | – | – | – | – | –
21 | 0.58 | NC(=O)c1cc(Nc2cccc(C(=O)O)c2)cc(-c2ccc(S(N)(=O)=O)cc2)c1N [HPN-01317, 3-((6-amino-5-carbamoyl-4′-sulfamoyl-[1,1′-biphenyl]-3-yl)amino)benzoic acid] | 4.32 | 3.35 | – | – | – | – | –
22 | 0.31 | NC(=O)c1cc(Oc2cccc(C(=O)O)c2)cc(-c2ccc(S(N)(=O)=O)cc2)c1N [HPN-01318, 3-((6-amino-5-carbamoyl-4′-sulfamoyl-[1,1′-biphenyl]-3-yl)oxy)benzoic acid] | 1.16 | 0.77 | – | – | – | – | –
23 | 0.63 | COC(=O)c1cccc(Nc2cc(C(N)=O)c(N)c(-c3ccc(S(N)(=O)=O)cc3)c2)c1 [HPN-01319, methyl 3-((6-amino-5-carbamoyl-4′-sulfamoyl-[1,1′-biphenyl]-3-yl)amino)benzoate] | 3.42 | 4.8 | – | – | – | – | –
24 | 0.69 | COC(=O)c1cccc(Oc2cc(C(N)=O)c(N)c(-c3ccc(S(N)(=O)=O)cc3)c2)c1 [HPN-01320, methyl 3-((6-amino-5-carbamoyl-4′-sulfamoyl-[1,1′-biphenyl]-3-yl)oxy)benzoate] | 2.16 | 1.1 | – | – | – | – | –
25 | 0.6 | NC(=O)c1cc(-c2ccc(Cl)cc2)cc(Nc2ccc(S(N)(=O)=O)cc2)c1N [HPN-01402, 4-amino-4′-chloro-5-((4-sulfamoylphenyl)amino)-[1,1′-biphenyl]-3-carboxamide] | 2.5 | 1.18 | – | – | – | – | –
26 | 0.64 | NC(=O)c1cc(-c2ccc(Br)cc2)cc(Nc2ccc(S(N)(=O)=O)cc2)c1N [HPN-01404, 4-amino-4′-bromo-5-((4-sulfamoylphenyl)amino)-[1,1′-biphenyl]-3-carboxamide] | 3.39 | 1.97 | – | – | – | – | –
